Results: ChEMBL document CHEMBL5537172 (J Med Chem, 2024)
Active and inactive are the calls of the source. The calls are words filed in the database; no cut-off is given here.

What was measured:
92-1 [1] = experiment: Antitumor activity against human 92-1 cells xenografted in po dosed mouse assessed as tumor suppression administered twice daily; format: functional, organism-based; conditions: dose lower […], dose upper 75.0 mg/kg
[2] = target: T1, Protein kinase C beta type (Homo sapiens, UniProt P05771); experiment: Inhibition of PKCbeta2 (unknown origin)
T1 sequence (P05771 whole entry): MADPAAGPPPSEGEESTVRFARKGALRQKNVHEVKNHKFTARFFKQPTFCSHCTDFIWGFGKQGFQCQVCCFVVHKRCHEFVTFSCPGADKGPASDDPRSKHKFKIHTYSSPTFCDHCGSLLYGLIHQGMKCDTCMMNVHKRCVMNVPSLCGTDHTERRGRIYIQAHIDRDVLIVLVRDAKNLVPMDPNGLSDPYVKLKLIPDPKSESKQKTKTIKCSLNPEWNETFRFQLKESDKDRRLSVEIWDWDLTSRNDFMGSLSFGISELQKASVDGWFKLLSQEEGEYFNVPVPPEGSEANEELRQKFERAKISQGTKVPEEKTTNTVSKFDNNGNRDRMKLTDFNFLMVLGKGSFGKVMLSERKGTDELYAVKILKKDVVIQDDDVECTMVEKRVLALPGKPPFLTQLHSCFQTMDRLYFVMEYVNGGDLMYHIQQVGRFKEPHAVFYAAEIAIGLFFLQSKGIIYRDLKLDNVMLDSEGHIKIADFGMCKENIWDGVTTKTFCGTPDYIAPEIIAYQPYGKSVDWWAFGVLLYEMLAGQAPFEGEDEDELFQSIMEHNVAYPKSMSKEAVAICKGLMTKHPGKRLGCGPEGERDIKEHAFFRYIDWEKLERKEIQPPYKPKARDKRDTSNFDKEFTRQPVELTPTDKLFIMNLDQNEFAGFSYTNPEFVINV

[3] = Cmax in dog at 3 mg/kg, po measured upto 24 hrs by LC-MS/MS analysis; format: ADME, organism-based, Canis lupus familiaris; conditions: in vivo
[4] = Toxicity in mouse xenografted with human 92-1 cells assessed as body weight loss at 15 to 150 mg/kg, po bid; format: organism-based; conditions: in vivo, dose 15-150 mg/kg
[5] = Cmax in mouse at 10 mg/kg, po measured upto 24 hrs by LC-MS/MS analysis; format: ADME, organism-based; conditions: in vivo
[6] = Volume of distribution at steady state in rat at 1 mg/kg, iv measured upto 24 hrs by LC-MS/MS analysis; format: ADME, organism-based; conditions: in vivo, read-out: Vdss
[7] = Oral bioavailability in mouse at 10 mg/kg measured upto 24 hrs by LC-MS/MS analysis; format: ADME, organism-based; conditions: in vivo
[8] = target: Protein kinase C delta type (Homo sapiens, UniProt Q05655); experiment: Inhibition of PKCdelta (unknown origin)
Sequence of Protein kinase C delta type (Q05655 whole entry): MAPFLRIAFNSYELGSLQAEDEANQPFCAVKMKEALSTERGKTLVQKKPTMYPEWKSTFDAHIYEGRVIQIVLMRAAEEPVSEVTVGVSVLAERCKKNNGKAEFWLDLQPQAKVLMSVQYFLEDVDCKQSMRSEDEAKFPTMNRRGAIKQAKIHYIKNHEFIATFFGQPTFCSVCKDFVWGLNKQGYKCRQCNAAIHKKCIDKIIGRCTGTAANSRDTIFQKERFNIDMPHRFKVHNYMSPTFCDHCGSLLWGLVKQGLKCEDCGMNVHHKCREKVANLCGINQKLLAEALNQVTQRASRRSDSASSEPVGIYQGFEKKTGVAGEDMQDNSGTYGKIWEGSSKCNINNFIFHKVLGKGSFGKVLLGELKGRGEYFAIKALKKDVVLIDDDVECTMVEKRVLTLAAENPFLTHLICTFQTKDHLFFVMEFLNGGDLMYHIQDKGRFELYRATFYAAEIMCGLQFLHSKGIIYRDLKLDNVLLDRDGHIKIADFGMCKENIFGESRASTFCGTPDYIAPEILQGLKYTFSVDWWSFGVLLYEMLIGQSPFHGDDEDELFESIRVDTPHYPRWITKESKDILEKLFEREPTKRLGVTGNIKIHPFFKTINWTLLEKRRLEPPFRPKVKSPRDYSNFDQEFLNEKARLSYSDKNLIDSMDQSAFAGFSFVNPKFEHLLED

[9] = Clearance in dog at 0.3 mg/kg, iv measured upto 24 hrs by LC-MS/MS analysis; format: ADME, organism-based, Canis lupus familiaris; conditions: in vivo
[10] = Volume of distribution at steady state in dog at 0.3 mg/kg, iv measured upto 24 hrs by LC-MS/MS analysis; format: ADME, organism-based, Canis lupus familiaris; conditions: in vivo, read-out: Vdss
[11] = Half-life in rat at 1 mg/kg, iv measured upto 24 hrs by LC-MS/MS analysis; format: ADME, organism-based; conditions: in vivo
[12] = target: Protein kinase C eta type (Homo sapiens, UniProt P24723); experiment: Inhibition of PKCeta (unknown origin)
Sequence of Protein kinase C eta type (P24723 whole entry): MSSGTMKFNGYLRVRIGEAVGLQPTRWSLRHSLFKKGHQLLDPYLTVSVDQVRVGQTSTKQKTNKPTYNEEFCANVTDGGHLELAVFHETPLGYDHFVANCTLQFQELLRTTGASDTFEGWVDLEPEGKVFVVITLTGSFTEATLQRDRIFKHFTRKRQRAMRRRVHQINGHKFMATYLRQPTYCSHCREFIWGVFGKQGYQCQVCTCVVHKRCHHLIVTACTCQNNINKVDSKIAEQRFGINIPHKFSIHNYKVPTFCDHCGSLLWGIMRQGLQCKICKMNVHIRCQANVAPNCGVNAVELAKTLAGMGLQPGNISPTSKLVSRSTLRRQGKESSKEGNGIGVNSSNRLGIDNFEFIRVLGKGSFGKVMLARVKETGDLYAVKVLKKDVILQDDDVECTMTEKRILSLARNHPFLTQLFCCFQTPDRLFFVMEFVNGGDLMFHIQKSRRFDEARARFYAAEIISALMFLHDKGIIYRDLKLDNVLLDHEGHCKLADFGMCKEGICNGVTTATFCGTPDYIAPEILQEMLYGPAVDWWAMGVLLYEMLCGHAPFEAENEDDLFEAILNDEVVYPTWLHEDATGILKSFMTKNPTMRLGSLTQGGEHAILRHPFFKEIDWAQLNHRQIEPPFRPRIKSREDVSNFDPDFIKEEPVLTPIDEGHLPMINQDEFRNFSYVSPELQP

92-1 [13] = experiment: Antitumor activity against human 92-1 cells xenografted in mouse assessed as tumor suppression at 75 mg/kg, po administered twice daily measured after compound withdrawal; format: functional, organism-based
[14] = target: T1, Protein kinase C beta type; experiment: Inhibition of PKCbeta1 (unknown origin)
[15] = target: Protein kinase C gamma type (Homo sapiens, UniProt P05129); experiment: Inhibition of PKCgamma (unknown origin)
[16] = Tmax in dog at 3 mg/kg, po measured upto 24 hrs by LC-MS/MS analysis; format: ADME, organism-based, Canis lupus familiaris; conditions: in vivo
92-1 [17] = experiment: Antitumor activity against human 92-1 cells xenografted in mouse assessed as tumor suppression at 75 to 150 mg/kg, po administered twice daily; format: functional, organism-based; conditions: dose lower 75.0 mg/kg, dose upper […]
[18] = Half-life in dog at 0.3 mg/kg, iv measured upto 24 hrs by LC-MS/MS analysis; format: ADME, organism-based, Canis lupus familiaris; conditions: in vivo
[19] = Toxicity in mouse xenografted with human 92-1 cells assessed as body weight loss at 75 to 150 mg/kg, po bid; format: organism-based; conditions: in vivo, dose 75-150 mg/kg
[20] = AUCinfinity in mouse at 10 mg/kg, po measured upto 24 hrs by LC-MS/MS analysis; format: ADME, organism-based; conditions: in vivo
[21] = Oral bioavailability in dog at 3 mg/kg measured upto 24 hrs by LC-MS/MS analysis; format: ADME, organism-based, Canis lupus familiaris; conditions: in vivo
[22] = Dissociation constant, pKa of compound; format: physicochemical
[23] = Half life in mouse at 1 mg/kg, iv measured upto 24 hrs by LC-MS/MS analysis; format: ADME, organism-based; conditions: in vivo
[24] = Cmax in rat at 3 mg/kg, po measured upto 24 hrs by LC-MS/MS analysis; format: ADME, organism-based; conditions: in vivo
cells = conditions: Homo sapiens, 92-1, 72 h
[25] = target: 5-hydroxytryptamine receptor 2B (Homo sapiens, UniProt P41595); experiment: Agonist activity at 5HT2B (unknown origin); format: toxicity
Sequence of 5-hydroxytryptamine receptor 2B (P41595 whole entry): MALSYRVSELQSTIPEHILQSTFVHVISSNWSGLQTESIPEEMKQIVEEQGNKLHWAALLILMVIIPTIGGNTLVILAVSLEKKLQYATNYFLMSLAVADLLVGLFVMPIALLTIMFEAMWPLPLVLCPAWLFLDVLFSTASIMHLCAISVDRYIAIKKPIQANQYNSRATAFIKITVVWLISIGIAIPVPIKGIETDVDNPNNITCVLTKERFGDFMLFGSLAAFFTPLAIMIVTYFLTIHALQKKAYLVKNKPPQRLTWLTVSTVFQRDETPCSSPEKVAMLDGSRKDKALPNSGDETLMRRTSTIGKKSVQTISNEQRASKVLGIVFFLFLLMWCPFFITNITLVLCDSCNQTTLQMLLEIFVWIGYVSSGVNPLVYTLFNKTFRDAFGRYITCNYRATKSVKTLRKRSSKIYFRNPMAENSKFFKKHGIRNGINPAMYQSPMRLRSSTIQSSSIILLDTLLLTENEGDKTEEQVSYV

Mus musculus = experiment: In vivo inhibition of PKCdelta in mouse xenografted with human 92-1 cells assessed as reduction in phosphorylated levels at 15 to 72 mg/kg, po; format: functional, organism-based; conditions: dose lower […], dose upper […]
SK-MEL-28 = experiment: cells; conditions: Homo sapiens
[26] = Tmax in rat at 3 mg/kg, po measured upto 24 hrs by LC-MS/MS analysis; format: ADME, organism-based; conditions: in vivo
[27] = Oral bioavailability in rat at 3 mg/kg measured upto 24 hrs by LC-MS/MS analysis; format: ADME, organism-based; conditions: in vivo
[28] = Tmax in mouse at 10 mg/kg, po measured upto 24 hrs by LC-MS/MS analysis; format: ADME, organism-based; conditions: in vivo
[29] = AUCinfinity in rat at 1 mg/kg, iv measured upto 24 hrs by LC-MS/MS analysis; format: ADME, organism-based; conditions: in vivo
[30] = AUCinfinity in dog at 3 mg/kg, po measured upto 24 hrs by LC-MS/MS analysis; format: ADME, organism-based, Canis lupus familiaris; conditions: in vivo
[31] = AUCinfinity in mouse at 1 mg/kg, iv measured upto 24 hrs by LC-MS/MS analysis; format: ADME, organism-based; conditions: in vivo
[32] = AUCinfinity in rat at 3 mg/kg, po measured upto 24 hrs by LC-MS/MS analysis; format: ADME, organism-based; conditions: in vivo
[33] = Volume of distribution at steady state in mouse at 1 mg/kg, iv measured upto 24 hrs by LC-MS/MS analysis; format: ADME, organism-based; conditions: in vivo, read-out: Vdss
[34] = AUCinfinity in dog at 0.3 mg/kg, iv measured upto 24 hrs by LC-MS/MS analysis; format: ADME, organism-based, Canis lupus familiaris; conditions: in vivo
[35] = target: T2, Protein kinase C epsilon type (Homo sapiens, UniProt Q02156); experiment: Inhibition of PKCepsilon (unknown origin)
T2 sequence (Q02156 whole entry): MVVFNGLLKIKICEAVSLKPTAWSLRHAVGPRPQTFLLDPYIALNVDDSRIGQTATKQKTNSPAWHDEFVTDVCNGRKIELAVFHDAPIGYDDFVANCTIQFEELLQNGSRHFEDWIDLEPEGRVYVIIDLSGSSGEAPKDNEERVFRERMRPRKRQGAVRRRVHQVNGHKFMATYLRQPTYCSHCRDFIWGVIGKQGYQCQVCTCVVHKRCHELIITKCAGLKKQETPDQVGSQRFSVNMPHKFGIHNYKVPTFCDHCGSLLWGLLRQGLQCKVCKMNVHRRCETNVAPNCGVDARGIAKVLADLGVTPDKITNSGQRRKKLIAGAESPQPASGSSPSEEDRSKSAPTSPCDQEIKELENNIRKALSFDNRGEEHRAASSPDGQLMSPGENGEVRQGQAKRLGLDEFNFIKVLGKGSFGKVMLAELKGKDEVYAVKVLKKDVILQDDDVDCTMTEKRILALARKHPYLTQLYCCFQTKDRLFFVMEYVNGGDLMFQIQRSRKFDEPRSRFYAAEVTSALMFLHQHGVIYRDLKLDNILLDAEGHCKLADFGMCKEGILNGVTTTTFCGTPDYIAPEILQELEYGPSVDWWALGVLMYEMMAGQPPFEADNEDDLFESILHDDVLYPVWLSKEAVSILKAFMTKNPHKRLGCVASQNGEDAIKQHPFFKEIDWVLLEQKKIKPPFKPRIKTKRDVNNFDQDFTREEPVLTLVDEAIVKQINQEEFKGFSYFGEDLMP

[36] = Clearance in rat at 1 mg/kg, iv measured upto 24 hrs by LC-MS/MS analysis; format: ADME, organism-based; conditions: in vivo
[37] = Clearance in mouse at 1 mg/kg, iv measured upto 24 hrs by LC-MS/MS analysis; format: ADME, organism-based; conditions: in vivo

CC1(N)CCN(c2cccnc2NC(=O)c2nc(-c3ncccc3C(F)(F)F)cnc2N)CC1 [DAROVASERTIB]
Activity (92-1 [1]): Dose-Dependent Effect
IC50 [2]: 0.058 µM
Cmax [3]: 6.12 µM
Activity [4]: Non-Toxic
Cmax [5]: 0.667 µM
Vd [6]: 3.4 L/kg
bioavailability [7]: 17%
IC50 [8]: 0.0069 µM
clearance [9]: 0.3 L/h/kg
Vd [10]: 1.4 L/kg
half-life [11]: 5.7 h
IC50 [12]: 0.0133 µM
Activity (92-1 [13]): inactive
IC50 [14]: 0.066 µM
IC50 [15]: 0.109 µM
Tmax [16]: 0.5 h
Activity (92-1 [17]): Active
half-life [18]: 4.4 h
Activity [19]: Non-Toxic
AUC(0-inf) [20]: 2170 nM·h
bioavailability [21]: 76%
pKa [22]: 9
half-life [23]: 1.1 h
Cmax [24]: 0.509 µM
EC50 (cells): 0.17 µM
EC50 [25]: > 30 µM
Activity (Mus musculus): Active
IC50 (SK-MEL-28): > 10 µM
Tmax [26]: 0.3 h
bioavailability [27]: 55%
Tmax [28]: 2 h
AUC(0-inf) [29]: 1450 nM·h
AUC(0-inf) [30]: 21400 nM·h
AUC(0-inf) [31]: 1360 nM·h
AUC(0-inf) [32]: 2390 nM·h
Vd [33]: 1.6 L/kg
AUC(0-inf) [34]: 2590 nM·h
IC50 [35]: 0.0029 µM
clearance [36]: 1.44 L/h/kg
clearance [37]: 1.56 L/h/kg
